The values that follow are results of earlier work, collected in patent publication US11197823B2, “Topiramate oral liquid suspension and use thereof” (OWP Pharmaceuticals, Inc., priority 2019, dated 2021).

In the case of `CC1(C)O[C@@H]2[C@@H](CO[C@@]3(COS(N)(=O)=O)OC(C)(C)O[C@@H]23)O1` [Topiramate, 2,3:4,5-Di-O-isopropylidene-β-D-fructopyranose sulfamate], the “solubility in organic solvents and alkaline solutions” value (acetone, dimethyl sulfoxide, ethanol, and alkaline solutions containing sodium hydroxide or sodium phosphate) is “freely soluble”. The solubility in water entry (water, room temperature) is listed as “approximately 9.8 mg/mL”.
